In BigSolDB 2.1:

O=P1(O)OCC2(CO1)COP(=O)(O)OC2 (configuration not stated)
Conditions | solubility (mole fraction)
in 1,4-dioxane, 293.16 K | 0.00025
in 1,4-dioxane, 298.17 K | 0.00028
in 1,4-dioxane, 303.16 K | 0.00031
in 1,4-dioxane, 308.17 K | 0.00035
in 1,4-dioxane, 313.16 K | 0.0004
in 1,4-dioxane, 318.18 K | 0.00045
in 1,4-dioxane, 323.16 K | 0.0005
in 1,4-dioxane, 328.16 K | 0.00055
in 1,4-dioxane, 333.17 K | 0.0006
in 1,4-dioxane, 338.15 K | 0.00066
in 2-butanone, 293.16 K | 0.0006
in 2-butanone, 298.17 K | 0.0007
in 2-butanone, 303.16 K | 0.0008
in 2-butanone, 308.17 K | 0.001
in 2-butanone, 313.16 K | 0.0011
in 2-butanone, 318.18 K | 0.0013
in 2-butanone, 323.16 K | 0.0015
in 2-butanone, 328.16 K | 0.0016
in 2-butanone, 333.17 K | 0.0018
in acetic acid, 293.16 K | 0.00017
in acetic acid, 298.17 K | 0.00022
in acetic acid, 303.16 K | 0.00026
in acetic acid, 308.17 K | 0.00032
in acetic acid, 313.16 K | 0.0004
in acetic acid, 318.18 K | 0.00048
in acetic acid, 323.16 K | 0.00057
in acetic acid, 328.16 K | 0.00067
in acetic acid, 333.17 K | 0.00078
in acetic acid, 338.15 K | 0.00092
in acetone, 295.75 K | 0.004
in acetone, 297.55 K | 0.0041
in acetone, 299.85 K | 0.0043
in acetone, 301.45 K | 0.0044
in acetone, 303.15 K | 0.0045
in acetone, 305.35 K | 0.0047
in acetone, 307.95 K | 0.0049
in acetone, 309.15 K | 0.005
in acetone, 313.35 K | 0.0053
in acetone, 317.15 K | 0.0057
in acetone, 319.15 K | 0.0058
in acetonitrile, 309.35 K | 0.0006
in acetonitrile, 311.25 K | 0.0007
in acetonitrile, 313.25 K | 0.0009
in acetonitrile, 315.45 K | 0.001
in acetonitrile, 317.35 K | 0.0012
in acetonitrile, 319.55 K | 0.0015
in acetonitrile, 321.55 K | 0.0017
in acetonitrile, 323.25 K | 0.002
in acetonitrile, 325.75 K | 0.0025
in acetonitrile, 327.45 K | 0.0028
in acetonitrile, 329.45 K | 0.0032
in acetonitrile, 331.55 K | 0.0038
in benzene, 293.16 K | 0.00031
in benzene, 298.17 K | 0.00038
in benzene, 303.16 K | 0.00047
in benzene, 308.17 K | 0.00059
in benzene, 313.16 K | 0.0007
in benzene, 318.18 K | 0.00088
in benzene, 323.16 K | 0.00103
in benzene, 328.16 K | 0.00123
in benzene, 333.17 K | 0.00146
in benzene, 338.15 K | 0.00176
in chloroform, 293.16 K | 0.00046
in chloroform, 298.17 K | 0.00054
in chloroform, 303.16 K | 0.00067
in chloroform, 308.17 K | 0.00081
in chloroform, 313.16 K | 0.00094
in chloroform, 318.18 K | 0.00114
in chloroform, 323.16 K | 0.00137
in chloroform, 328.16 K | 0.00163
in chloroform, 333.17 K | 0.00192
in chloroform, 338.15 K | 0.00222
in cyclohexane, 293.16 K | 0.00016
in cyclohexane, 298.17 K | 0.00019
in cyclohexane, 303.16 K | 0.00022
in cyclohexane, 308.17 K | 0.00025
in cyclohexane, 313.16 K | 0.00028
in cyclohexane, 318.18 K | 0.00032
in cyclohexane, 323.16 K | 0.00037
in cyclohexane, 328.16 K | 0.00041
in cyclohexane, 333.15 K | 0.00046
in cyclohexane, 338.15 K | 0.00052
in dichloromethane, 291.16 K | 0.00027
in dichloromethane, 295.18 K | 0.00032
in dichloromethane, 299.16 K | 0.00037
in dichloromethane, 303.19 K | 0.00045
in dichloromethane, 305.2 K | 0.00048
in dichloromethane, 309.15 K | 0.00056
in diethyl ether, 291.16 K | 0.00053
in diethyl ether, 295.18 K | 0.00073
in diethyl ether, 299.16 K | 0.00096
in diethyl ether, 303.19 K | 0.00124
in diethyl ether, 305.2 K | 0.0014
in ethyl acetate, 293.16 K | 0.00078
in ethyl acetate, 298.17 K | 0.00092
in ethyl acetate, 303.16 K | 0.00109
in ethyl acetate, 308.17 K | 0.00129
in ethyl acetate, 313.16 K | 0.00152
in ethyl acetate, 318.18 K | 0.00177
in ethyl acetate, 323.16 K | 0.00204
in ethyl acetate, 328.16 K | 0.00229
in ethyl acetate, 333.17 K | 0.00271
in ethyl acetate, 338.15 K | 0.00315
in toluene, 293.16 K | 0.00046
in toluene, 298.17 K | 0.00059
in toluene, 303.16 K | 0.00071
in toluene, 308.17 K | 0.00086
in toluene, 313.16 K | 0.00104
in toluene, 318.18 K | 0.00122
in toluene, 323.16 K | 0.00146
in toluene, 328.16 K | 0.00176
in toluene, 333.17 K | 0.00209
in toluene, 338.15 K | 0.00248

O=P1(Oc2ccccc2)OCC2(CO1)COP(=O)(Oc1ccccc1)OC2 (configuration not stated)
Conditions | solubility (mole fraction)
in 1,4-dioxane, 293.26 K | 0.00132
in 1,4-dioxane, 298.45 K | 0.00152
in 1,4-dioxane, 303.26 K | 0.00181
in 1,4-dioxane, 308.67 K | 0.00214
in 1,4-dioxane, 313.24 K | 0.00253
in 1,4-dioxane, 318.36 K | 0.00294
in 1,4-dioxane, 323.35 K | 0.00335
in 1,4-dioxane, 328.23 K | 0.00383
in 1,4-dioxane, 333.36 K | 0.00438
in 1,4-dioxane, 338.25 K | 0.00499
in 2-butanone, 293.15 K | 0.00399
in 2-butanone, 298.16 K | 0.00446
in 2-butanone, 303.17 K | 0.00506
in 2-butanone, 308.18 K | 0.00575
in 2-butanone, 313.16 K | 0.00638
in 2-butanone, 318.19 K | 0.00733
in 2-butanone, 323.15 K | 0.00809
in 2-ethoxyethanol, 293.24 K | 0.00325
in 2-ethoxyethanol, 298.24 K | 0.00392
in 2-ethoxyethanol, 303.16 K | 0.00455
in 2-ethoxyethanol, 308.17 K | 0.00543
in 2-ethoxyethanol, 313.23 K | 0.00637
in 2-ethoxyethanol, 318.16 K | 0.00756
in 2-ethoxyethanol, 323.18 K | 0.00897
in 2-ethoxyethanol, 328.15 K | 0.0104
in 2-ethoxyethanol, 333.16 K | 0.0122
in 2-ethoxyethanol, 338.17 K | 0.014
in 2-ethoxyethanol, 343.16 K | 0.0161
in 2-ethoxyethanol, 348.17 K | 0.0185
in 2-ethoxyethanol, 353.16 K | 0.0215
in 2-ethoxyethanol, 358.16 K | 0.0244
in 2-ethoxyethanol, 363.17 K | 0.0277
in 2-ethoxyethanol, 368.16 K | 0.0319
in THF, 293.53 K | 0.00524
in THF, 298.16 K | 0.00615
in THF, 303.49 K | 0.00727
in THF, 308.25 K | 0.00845
in THF, 313.35 K | 0.00996
in THF, 318.31 K | 0.0115
in THF, 323.35 K | 0.0133
in THF, 328.46 K | 0.0153
in acetone, 293.17 K | 0.00237
in acetone, 298.16 K | 0.00275
in acetone, 303.26 K | 0.00322
in acetone, 308.57 K | 0.00371
in acetone, 313.24 K | 0.00421
in acetone, 318.07 K | 0.00479
in acetone, 323.25 K | 0.00542
in acetone, 328.36 K | 0.00622
in acetonitrile, 293.31 K | 0.00156
in acetonitrile, 298.17 K | 0.00187
in acetonitrile, 303.26 K | 0.00223
in acetonitrile, 308.57 K | 0.00273
in acetonitrile, 313.35 K | 0.00318
in acetonitrile, 318.24 K | 0.00375
in acetonitrile, 323.36 K | 0.00438
in acetonitrile, 328.27 K | 0.00522
in acetonitrile, 333.35 K | 0.00614
in acetonitrile, 338.56 K | 0.00738
in acetonitrile, 343.44 K | 0.00841
in benzene, 293.17 K | 0.00119
in benzene, 298.16 K | 0.00121
in benzene, 304.76 K | 0.00124
in benzene, 308.37 K | 0.00127
in benzene, 313.55 K | 0.00129
in benzene, 318.26 K | 0.00133
in benzene, 323.24 K | 0.00136
in benzene, 328.43 K | 0.00138
in benzene, 333.46 K | 0.00141
in benzene, 338.34 K | 0.00143
in benzene, 343.26 K | 0.00145
in benzene, 348.35 K | 0.00147
in chloroform, 293.25 K | 0.00224
in chloroform, 298.17 K | 0.00319
in chloroform, 303.25 K | 0.00436
in chloroform, 308.56 K | 0.00611
in chloroform, 313.25 K | 0.00806
in chloroform, 318.25 K | 0.0106
in chloroform, 323.04 K | 0.0139
in chloroform, 328.35 K | 0.0188
in chloroform, 333.13 K | 0.0234
in dichloromethane, 293.16 K | 0.00103
in dichloromethane, 299.22 K | 0.00127
in dichloromethane, 303.86 K | 0.00146
in dichloromethane, 307.6 K | 0.00167
in diethyl ether, 291.95 K | 0.00179
in diethyl ether, 295.37 K | 0.00204
in diethyl ether, 299.26 K | 0.00234
in diethyl ether, 303.55 K | 0.00275
in ethanol, 298.16 K | 0.00136
in ethanol, 303.15 K | 0.00157
in ethanol, 308.16 K | 0.00187
in ethanol, 313.14 K | 0.00218
in ethanol, 318.16 K | 0.00246
in ethanol, 323.16 K | 0.00288
in ethanol, 328.17 K | 0.00329
in ethanol, 333.16 K | 0.00383
in ethanol, 338.16 K | 0.00426
in ethanol, 343.15 K | 0.00485
in ethyl acetate, 293.25 K | 0.00107
in ethyl acetate, 298.46 K | 0.00132
in ethyl acetate, 303.27 K | 0.00158
in ethyl acetate, 308.66 K | 0.00193
in ethyl acetate, 313.27 K | 0.0023
in ethyl acetate, 318.35 K | 0.00281
in ethyl acetate, 323.35 K | 0.00334
in ethyl acetate, 328.26 K | 0.00392
in ethyl acetate, 333.37 K | 0.00459
in ethyl acetate, 338.26 K | 0.00539
in methanol, 293.24 K | 0.00271
in methanol, 298.24 K | 0.00298
in methanol, 303.16 K | 0.00329
in methanol, 308.17 K | 0.00365
in methanol, 313.23 K | 0.00401
in methanol, 318.16 K | 0.00443
in methanol, 323.15 K | 0.00483
in pyridine, 293.43 K | 0.00813
in pyridine, 298.35 K | 0.00885
in pyridine, 303.51 K | 0.00964
in pyridine, 308.35 K | 0.0104
in pyridine, 313.35 K | 0.0114
in pyridine, 318.31 K | 0.0123
in pyridine, 323.35 K | 0.0132
in pyridine, 328.45 K | 0.0141
in toluene, 298.17 K | 0.00115
in toluene, 303.25 K | 0.00143
in toluene, 308.56 K | 0.00185
in toluene, 313.34 K | 0.00229
in toluene, 318.26 K | 0.00285
in toluene, 323.37 K | 0.00352
in toluene, 328.25 K | 0.00424
in toluene, 333.34 K | 0.00536
in toluene, 338.56 K | 0.00646
in toluene, 343.45 K | 0.00781
in water, 293.18 K | 0.00014
in water, 298.77 K | 0.0002
in water, 308.37 K | 0.0003
in water, 313.56 K | 0.00037
in water, 318.25 K | 0.0005
in water, 323.24 K | 0.00064
in water, 328.43 K | 0.00086
in water, 333.45 K | 0.00116
in water, 338.36 K | 0.00148
in water, 343.26 K | 0.00188
in water, 348.35 K | 0.00241
in water, 353.24 K | 0.00295
in water, 358.25 K | 0.00371
in water, 363.36 K | 0.00477
in water, 368.25 K | 0.00591
